Reference: US20240158373A1, “RING-MODIFIED PROLINE SHORT PEPTIDE COMPOUND AND USE THEREOF” (FUJIAN AKEYLINK BIOTECHNOLOGY CO., LTD., priority 2021, published 2024)
Where two headings read alike, the source gives them in different places.

Legend:
SARS-CoV-2 Mpro = target: T1, SARS-CoV-2 Mpro (Severe acute respiratory syndrome coronavirus 2, UniProt P0DTD1); assay: In vitro anti-novel coronavirus Mpro protease activity (fluorogenic substrate); assay type: biochemical; conditions: 25 nM Mpro, 25 μM substrate, 30 min pre-incubation
T1 construct: SARS-CoV-2 Mpro; purchased WuXi AppTec
Experimental: The compound was dissolved in DMSO, and diluted in a 3-fold gradient with Echo655 according to the concentration requirements to 10 concentration points, and duplicate tests were set at each concentration, and the diluted solution was added to a 384-well plate. Mpro protein and substrate were diluted with test buffer (100 mM NaCl, 20 mM Tris-HCl, 1 mM EDTA), and Mpro protein was added to the 384-well test plate, incubated with the compound for 30 min at room temperature, and then the substrate was added thereto, and the test concentration of Mpro protein was 25 nM, and the test concentration of substrate was 25 μM. After incubating for 60 minutes in a 30° C. constant temperature incubator, the fluorescence signal value of Ex/Em=340 nm/490 nm was detected by microplate reader. At the same time, the background well containing the substrate and compound but not containing Mpro protein was detected as control.
1) The inhibition rate was calculated using the following formula:
Inhibition rate %=[(compound-BGcompound)−(ZPE-BGZPE)]/[(HPE-BGHPE)−(ZPE-BGZPE)]*100%
ZPE: No-inhibition control, containing 25 nM Mpro protein+25 μM substrate, not containing compound
Compound: Test compound well, containing 25 nM Mpro protein+25 μM substrate+compound
BG: Background control well, containing 25 μM substrate+compound, not containing Mpro protein
2) Log (agonist) vs. response—variable slope nonlinear fitting analysis was carried out on the inhibition rate data (inhibition rate %) of the compound by using GraphPad Prism software, and the IC50 value of the compound was obtained.

[1] = Pharmacokinetic test in combination with Ritonavir in mice; assay type: in vivo, C57BL/6J male mice; conditions: mouse, plasma, po, 10 mg/kg, p.o. 10 mpk
Experimental: In this study, C57BL/6J male mice were selected as test animals, and the LC/MS/MS method was used to quantitatively measure the plasma concentrations of mice in combination with Ritonavir at different time points, so as to evaluate the pharmacokinetic characteristics of the test drug in mice.
Firstly, 10 mpk of Ritonavir was administered to mice by intragastric administration at −12 h and 0 h, and then the test compound was dissolved in 30% PEG400+70% normal saline solution and administered to mice by intragastric administration (overnight fasting, 6 to 8 weeks old). 25 μL of blood was collected at 0.083, 0.25, 0.5, 1, 2, 4, 8, 12 and 24 hours after administration to animals, placed in a commercial anticoagulant tube pre-added with EDTA-K2, and centrifuged at 4° C., 3200 g for 10 min to obtain plasma. After the plasma samples were treated, the plasma concentration was determined by LC-MS/MS method.

[2] = Pharmacokinetics test of mice; assay type: in vivo, C57BL/6J male mice; conditions: mouse, plasma
Experimental: In this study, C57BL/6J male mice were selected as test animals, and LC/MS/MS method was used to quantitatively measure the plasma concentration of the test compound 11 at different time points after oral administration and injection in mice, so as to evaluate the pharmacokinetic characteristics of the test drug in mice.
The test compound dissolved in 30% PEG400+70% normal saline was administered to mice (overnight fasting, 6-8 weeks old) by intragastric administration. 25 μL of blood was collected at 0.083, 0.25, 0.5, 1, 2, 4, 8, 12 and 24 hours after administration, respectively, and placed in commercial anticoagulation tubes pre-added with EDTA-K2, centrifuged at 4° C., 3200 g for 10 min to obtain plasma, and after the plasma sample was treated, the plasma concentration was determined by LC-MS/MS method.

[3] = Tissue distribution test in rats (after Ritonavir); assay type: in vivo, SD male rats; conditions: rat, po, 30 mg/kg, with Ritonavir
Experimental: In this study, SD male rats were selected as test animals, and the drug concentrations of test compounds in plasma and lungs of rats at different time points were quantitatively measured by LC/MS/MS method to evaluate the pharmacokinetic characteristics of test drugs in rats.
Firstly, 10 mpk of Ritonavir was administered to rats by intragastric administration at −12 h and 0 h, and 30 mpk of the test compound was dissolved in 10% Solutol+30% PEG 400+2% Tween 80+H2O 58% solution and administered to rats by intragastric administration (overnight fasting). 40 μL of blood was collected from the saphenous vein of rats at 0.25, 1 and 6 hours after administration, placed in an anticoagulant tube added with EDTA-K2, centrifuged at 4° C., 3200 g for 10 min to obtain plasma, and some animals were killed at 0.25, 1 and 6 hours respectively to collect lung tissue. After the plasma samples were treated, the plasma concentration was determined by LC-MS/MS method.

N#C[C@H](C[C@@H]1CCNC1=O)NC(=O)[C@@H]1[C@H]2CC[C@H](C2)N1C(=O)[C@@H](NC(=O)C(F)(F)F)C12CC3CC(CC(F)(C3)C1)C2 [Compound 9]
IC50 (SARS-CoV-2 Mpro): 25 nM

CC(C)(C)[C@H](NC(=O)C(F)(F)F)C(=O)N1[C@H]2C[C@@H]([C@H]1C(=O)N[C@H](C#N)C[C@@H]1CCNC1=O)C1(CC1)C2 [Compound 11]
AUC(0-t) ([1]; with Ritonavir 10 mpk): 28.7 µM·h
Tmax ([1]; with Ritonavir 10 mpk): 30 min
Cmax ([1]; with Ritonavir 10 mpk at −12 h and 0 h): 10.1 µM
AUC(0-t) ([2]; iv, 3 mg/kg, i.v. 3 mpk): 1.45 µM·h
clearance ([2]; iv, 3 mg/kg, i.v. 3 mpk): 68.5 mL/min/kg
half-life ([2]; iv, 3 mg/kg, i.v. 3 mpk): 12 min
Vd ([2]; iv, 3 mg/kg, i.v. 3 mpk, read-out: Vdss): 0.9 L/kg
AUC(0-t) ([2]; po, 10 mg/kg, p.o. 10 mpk): 1.52 µM·h
Tmax ([2]; po, 10 mg/kg, p.o. 10 mpk): 15 min
Cmax ([2]; po, 10 mg/kg, p.o. 10 mpk): 1.85 µM
Kp at 0.25 h ([3]; lung, 0.25 h, given as x/1, read-out: Lung/plasma ratio at 0.25 h): 5.5
Kp at 1 h ([3]; lung, 1 h, given as x/1, read-out: Lung/plasma ratio at 1 h): 3.2
Kp at 6 h ([3]; lung, 6 h, given as x/1, read-out: Lung/plasma ratio at 6 h): 1.6
Kp at 6 h ([3]; lung, given as x/1, read-out: Lung/plasma ratio of AUC(0-6 h)): 2.6
concentration at 0.25 h ([3]; 30 mpk intragastric, lung, 0.25 h, read-out: Lung concentration at 0.25 h): 15.8 µM
concentration at 1 h ([3]; 30 mpk intragastric, lung, 1 h, read-out: Lung concentration at 1 h): 18.4 µM
concentration at 6 h ([3]; 30 mpk intragastric, lung, 6 h, read-out: Lung concentration at 6 h): 7.85 µM
AUC at 6 h ([3]; 30 mpk intragastric, lung, read-out: Lung AUC(0-6 h)): 76.8 µM·h
AUC(0-t) at 6 h ([3]; 30 mpk intragastric, plasma): 29.4 µM·h
concentration at 0.25 h ([3]; 30 mpk intragastric, plasma, 0.25 h, read-out: Plasma concentration at 0.25 h): 2.86 µM
concentration at 1 h ([3]; 30 mpk intragastric, plasma, 1 h, read-out: Plasma concentration at 1 h): 5.49 µM
concentration at 6 h ([3]; 30 mpk intragastric, plasma, 6 h, read-out: Plasma concentration at 6 h): 4.88 µM

CC(C)(C)[C@H](NC(=O)C(F)(F)F)C(=O)N1C[C@@H]2C3C=CC(C3)[C@@H]2[C@H]1C(=O)N[C@H](C#N)C[C@@H]1CCNC1=O (single isomer, unassigned) [Compound 28]
IC50 (SARS-CoV-2 Mpro): 31 nM

CC(C)(C)[C@H](NC(=O)C(F)(F)F)C(=O)N1C[C@@H]2C3CCC(C3)[C@@H]2[C@H]1C(=O)N[C@H](C#N)C[C@@H]1CCNC1=O (single isomer, unassigned) [Compound 29-2]
IC50 (SARS-CoV-2 Mpro): 11 nM

CC(C)(C)[C@H](NC(=O)C(F)(F)F)C(=O)N1C[C@@H]2C3CCC(C3)[C@@H]2[C@H]1C(=O)N[C@H](C#N)C[C@@H]1CCNC1=O (single isomer, unassigned) [Compound 29-1]
IC50 (SARS-CoV-2 Mpro): 264 nM

CC(C)(C)[C@H](NC(=O)C(F)(F)F)C(=O)N1C[C@@H]2C3C=CC(C3)[C@@H]2[C@H]1C(=O)N[C@H](C#N)C[C@@H]1CCNC1=O (single isomer, unassigned) [Compound 28A]
IC50 (SARS-CoV-2 Mpro): 2.6 nM
